1 compound from patent publication US8138158B2, “Compositions and methods for therapy for diseases characterized by defective chloride transport” (Children's Hospital & Research Center at Oakland, priority 1997, dated 2012) can be followed below.

In test [1] the target is T1, CFTR Cl channels (Homo sapiens, UniProt P13569).
T1 construct: Calu-3 airway cells which express large amounts of native CFTR; endogenous in cells; host or cells: Calu-3 human airway epithelial cells
Put plainly: Outside-out single channel patch clamp on Calu-3 cells. The class given is cell-based. The method, then:
Patch clamp analysis. Single channel patch clamp studies were performed on Calu-3 cells at 37° C. The outside-out recording mode was established via the whole cell mode as described (Fischer, H. (2001) in Methods in Molecular Medicine, […]. & Walker, J. M. (Humana Press Inc, Totowa), pp. 49-66.). The bath solution contained (in mM) 145 NaCl, 1.7 CaCl2, 1 MgCl2, 10 Hepes, 10 glucose, pH=7.4. The pipette solution contained (in mM): 15 N-methyl-D-glucamine (NMG) Cl, 10 EGTA, 1 MgCl2, 10 Hepes, 10 glucose, 120 NMG-gluconate, 5 MgATP, 0.1 LiGTP, pH=7.4. […] The regulatory role of vitamin C on Cl ion channel activity was studied in Calu-3 airway cells which express large amounts of native CFTR as their major Cl conductance ([…]., Widdicombe, J. H. & Wine, J. J. (1994) Am. J. Physiol. 266, […]-[…]). […] Details of the single channel recording are illustrated in FIG. 20C. […] At negative potentials no channel openings were resolved indicating Cl-over-gluconate selectivity. Cyclic AMP is the major intracellular messenger for the activation of CFTR. We tested the possibility that L-ascorbic acid increased intracellular cAMP levels [cAMP], by either turning on cAMP production or preventing cAMP degradation. FIG. 20E compares whole cell cAMP levels of Calu-3 cells challenged with either increasing concentrations of L-ascorbic acid or the cAMP agonist forskolin.
(In general: Patch clamp records ionic current or voltage across a cell membrane.)

Test [2] has as its system nasal potential difference (NPD). Description: Nasal potential difference (NPD) measurements in healthy volunteers, Example 12. The class given is in vivo, human. The method, then:
Nasal potential difference (NPD) measurements. Measurements of NPD were performed in healthy volunteers as described (Illek, B. & Fischer, H., Supra). The study protocol was approved by the Internal Review Board at Children's Hospital Oakland. Solutions and test drugs were perfused into one nostril at ˜5 ml/min at room temperature (23-25° C.). NaCl solution contained (in mM): 145 NaCl, 4 KCl, 1 CaCl2, 1 MgCl2, 10 Hepes, pH=7.4. In Cl free solutions all Cl salts were replaced by the respective gluconate salts. All solutions were sterile filtered before use. NPD was sensed with an Ag/AgCl/agar electrode placed in the perfusing tube with respect to an electrode placed on a slightly scratched skin part on the forearm (Alton, E. W. F. W., Currie, A. D., Logan-Sinclair, R., Warner, J. O., Hodson, M. E. & Geddes, D. M. (1990) Eur. Resp. J. 3, 922-926).
In vivo effects of ascorbic acid on Cl transport were evaluated using the nasal potential difference (NPD) assay for Cl channel function. The Cl-selective NPD was measured in amiloride-containing (100 μm) and chloride-free solutions. These experiments served as an important control to verify the significance of the transepithelial results obtained with ascorbic acid in Calu-3 cells. In close agreement with the transepithelial measurements, NPD was progressively hyperpolarized during the exposure of the nasal mucosa to L-ascorbic acid (by −6.7±0.4 mV, n=3) and the cAMP-stimulating agonist isoproterenol (by −5.5±0.5 mV, n=4) (FIG. 21C). A dose of 300 μm L-ascorbic acid hyperpolarized NPD to 72% of the NPD in presence of the cAMP agonist isoproterenol (10 μM).

Test [3] deals with T2, ΔF508 CFTR (Mus musculus, UniProt P26361, DEL508-508).
T2 construct: from tissue; host or cells: rectal mucosa of living ΔF508 CF mice (C57Bl6/J), TMAO-treated or water-injected
Description: Rectal potential difference (RPD) in mice homozygous for ΔF508 CFTR. The class given is in vivo. The text has this:
CF mice and rectal potential difference (RPD) measurements. Gene-targeted mice homozygous for the ΔF508 mutation (C57Bl6/J) received Golytely® (Braintree Laboratories, Inc.), a diarrhetic supplement, in the drinking water to increase their lifespan (Clarke, L. L., Gawenis, L. R., Franklin, C. L. & Harline, M. C. (1996) Lab. Anim. Sci. 46, 612-8). To correct the maturation defect of ΔF508 CFTR we used the chemical chaperone trimethylamine oxide (TMAO) (Brown, C. R., Hong-Brown, L. Q., Biwersi, J., Verkman, A. S. & Welch, W. J. (1996) Cell Stress Chaperones 1, 117-25). CF mice were injected with 4 mg/g TMAO from a 4 M stock solution every 8 hours for 24 hours, which is a regimen to partially correct the ΔF508 defect in CF mice (Fischer, H., Barbry, P., Illek, B., Sartori, C., Fukuda, N. & Matthay, M. A. (2001) Am. J. Physiol. 281, L52-L57). Controls were water-injected. The RPD assay was performed on mice that were anesthetized with 0.1 mg/g body weight ketamine and 0.01 mg/g body weight azepromazine. RPD was sensed with a 1 M NaCl agar bridge inserted ˜1 cm into the rectum vs. a subcutaneous needle filled with 1 M NaCl. Measurements were performed in Cl free solution containing 100 μm amiloride and 5 mM Ba(OH)2 to isolate the Cl-selective RPD.
In this Example, it was determined whether L-ascorbic acid affected the functional activation of ΔF508 CFTR in a CF-affected organism in vivo. Using gene-targeted mice homozygous for the ΔF508 mutation it was shown previously that the osmolyte trimethylamine oxide (TMAO) effectively supported ΔF508 CFTR trafficking in vivo (Fischer, H., Barbry, P., Illek, B., Sartori, C., Fukuda, N. & Matthay, M. A. (2001) Am. J. Physiol. 281, L52-L57). Accordingly, the effect of L-ascorbic acid was tested in homozygous ΔF508 CF mice treated with TMAO by using the RPD assay as a functional end point measure for mutant ΔF508-CFTR function. FIG. 24A illustrates that TMAO-treated CF mice manifested a detectable response to a maximal dose of L-ascorbic acid (1 mM) or its epimer D-isoascorbic acid (300 μM) and RPD hyperpolarized on average by −3.2±0.8 mV (n=4) and −3.6±1.8 mV (n=3), respectively (FIG. 24B).

T1 sequence (P13569 whole entry): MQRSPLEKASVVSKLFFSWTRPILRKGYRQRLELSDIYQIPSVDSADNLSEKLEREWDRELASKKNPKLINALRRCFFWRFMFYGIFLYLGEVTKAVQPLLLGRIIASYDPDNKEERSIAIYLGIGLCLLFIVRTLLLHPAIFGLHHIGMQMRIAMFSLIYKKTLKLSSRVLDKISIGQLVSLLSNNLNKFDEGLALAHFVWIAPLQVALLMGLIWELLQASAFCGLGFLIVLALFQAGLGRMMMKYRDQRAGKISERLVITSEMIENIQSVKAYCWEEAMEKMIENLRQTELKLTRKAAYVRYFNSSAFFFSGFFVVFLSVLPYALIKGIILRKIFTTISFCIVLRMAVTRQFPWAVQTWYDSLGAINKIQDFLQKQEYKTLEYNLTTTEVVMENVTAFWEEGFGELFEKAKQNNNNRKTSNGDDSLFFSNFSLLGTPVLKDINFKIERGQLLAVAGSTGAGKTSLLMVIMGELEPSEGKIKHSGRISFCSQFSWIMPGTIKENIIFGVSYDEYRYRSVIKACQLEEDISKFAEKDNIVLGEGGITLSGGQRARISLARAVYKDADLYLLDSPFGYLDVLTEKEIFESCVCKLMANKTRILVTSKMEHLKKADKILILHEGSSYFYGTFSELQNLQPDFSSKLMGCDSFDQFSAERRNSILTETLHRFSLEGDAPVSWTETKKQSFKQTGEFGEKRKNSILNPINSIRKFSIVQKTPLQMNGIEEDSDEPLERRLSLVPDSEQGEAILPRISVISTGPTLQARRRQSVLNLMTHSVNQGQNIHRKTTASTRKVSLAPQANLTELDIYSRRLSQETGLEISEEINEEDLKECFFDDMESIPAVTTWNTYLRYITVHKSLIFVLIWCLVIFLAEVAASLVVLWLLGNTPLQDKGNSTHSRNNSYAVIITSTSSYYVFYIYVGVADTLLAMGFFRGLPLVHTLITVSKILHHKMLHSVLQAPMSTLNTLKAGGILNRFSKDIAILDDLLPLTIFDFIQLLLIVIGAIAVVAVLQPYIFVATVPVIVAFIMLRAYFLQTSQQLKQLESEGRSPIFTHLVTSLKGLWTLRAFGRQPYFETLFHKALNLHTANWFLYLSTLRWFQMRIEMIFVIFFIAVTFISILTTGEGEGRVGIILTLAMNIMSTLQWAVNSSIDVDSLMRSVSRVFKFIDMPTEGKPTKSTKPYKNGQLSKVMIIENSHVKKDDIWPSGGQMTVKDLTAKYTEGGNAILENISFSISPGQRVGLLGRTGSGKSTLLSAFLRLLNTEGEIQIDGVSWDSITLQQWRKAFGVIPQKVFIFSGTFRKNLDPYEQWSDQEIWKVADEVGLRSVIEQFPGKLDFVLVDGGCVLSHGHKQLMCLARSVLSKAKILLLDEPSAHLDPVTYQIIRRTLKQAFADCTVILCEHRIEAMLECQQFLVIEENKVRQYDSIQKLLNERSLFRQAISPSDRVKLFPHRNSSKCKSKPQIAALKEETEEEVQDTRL
T2 sequence (P26361 with tags, fused parts or gaps DEL508-508): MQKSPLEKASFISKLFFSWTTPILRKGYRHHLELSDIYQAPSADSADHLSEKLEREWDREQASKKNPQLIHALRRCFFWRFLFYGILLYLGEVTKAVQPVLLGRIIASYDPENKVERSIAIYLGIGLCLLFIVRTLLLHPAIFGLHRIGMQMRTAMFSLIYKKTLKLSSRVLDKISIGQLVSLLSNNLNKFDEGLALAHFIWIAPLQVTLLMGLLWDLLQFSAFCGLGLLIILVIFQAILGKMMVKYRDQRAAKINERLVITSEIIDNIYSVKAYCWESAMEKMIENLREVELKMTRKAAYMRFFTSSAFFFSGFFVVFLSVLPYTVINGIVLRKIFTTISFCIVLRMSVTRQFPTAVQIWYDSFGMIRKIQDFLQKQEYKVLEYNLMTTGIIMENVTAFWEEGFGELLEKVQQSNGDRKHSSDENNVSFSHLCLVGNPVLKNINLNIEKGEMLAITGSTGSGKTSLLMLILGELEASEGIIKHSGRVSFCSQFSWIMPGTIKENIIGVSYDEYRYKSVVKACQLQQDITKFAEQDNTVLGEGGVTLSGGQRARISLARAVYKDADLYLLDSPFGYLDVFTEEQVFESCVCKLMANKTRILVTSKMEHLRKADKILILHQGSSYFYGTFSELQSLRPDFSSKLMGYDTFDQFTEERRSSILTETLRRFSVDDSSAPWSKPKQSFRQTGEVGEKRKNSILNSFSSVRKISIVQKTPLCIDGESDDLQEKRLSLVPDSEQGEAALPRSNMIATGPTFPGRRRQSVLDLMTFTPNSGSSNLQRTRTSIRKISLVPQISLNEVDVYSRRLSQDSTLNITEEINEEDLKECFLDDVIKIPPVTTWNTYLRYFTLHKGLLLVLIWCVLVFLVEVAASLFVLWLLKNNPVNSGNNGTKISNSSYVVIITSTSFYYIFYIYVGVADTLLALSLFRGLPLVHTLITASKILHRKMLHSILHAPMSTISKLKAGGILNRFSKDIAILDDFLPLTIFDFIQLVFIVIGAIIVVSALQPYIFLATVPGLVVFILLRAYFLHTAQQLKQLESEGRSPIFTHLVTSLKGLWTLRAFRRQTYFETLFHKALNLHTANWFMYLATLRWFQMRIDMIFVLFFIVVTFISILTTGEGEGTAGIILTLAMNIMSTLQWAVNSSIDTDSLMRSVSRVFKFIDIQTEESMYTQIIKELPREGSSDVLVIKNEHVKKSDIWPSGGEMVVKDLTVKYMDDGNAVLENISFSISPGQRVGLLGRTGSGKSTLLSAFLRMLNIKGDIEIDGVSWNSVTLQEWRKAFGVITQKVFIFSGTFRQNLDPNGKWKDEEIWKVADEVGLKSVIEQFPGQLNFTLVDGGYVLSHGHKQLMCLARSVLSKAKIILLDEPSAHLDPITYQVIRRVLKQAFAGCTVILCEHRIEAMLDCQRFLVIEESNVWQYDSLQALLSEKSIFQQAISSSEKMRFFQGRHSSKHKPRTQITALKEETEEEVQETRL

As to `O=C1O[C@H](C(O)CO)C(O)=C1O` (stereo partly drawn) [L-ascorbic acid, L-xyloascorbic acid], the “average single channel open probability (Po) increased from zero to” value in test [1] (100 μM L-ascorbic acid, n=4) was determined as 0.21±0.08. Also, the “CFTR Cl channel openings” value in test [1] (applied to extracellular surface of the patched membrane) is on record as “induced openings of CFTR Cl channels”. The “slope conductance of ascorbate-stimulated chloride conductance” value in test [1] (n=4) worked out at 8.9±0.2 pS. Further, in test [2] (300 μm L-ascorbic acid vs isoproterenol 10 μM), the “NPD hyperpolarized to % of the NPD in presence of isoproterenol” value was 72%. Besides, the “NPD hyperpolarized by” value in test [2] (L-ascorbic acid, amiloride (100 μm), chloride-free, n=3) is listed as −6.7±0.4 mV. Further, in test [3] (CF mice treated with 4 mg/g TMAO for 24 hours, L-ascorbic acid 1 mM, n=4), the “RPD hyperpolarized on average by” value is on record as −3.2±0.8 mV. The ΔRPD in test [3] (water-injected control CF mice, L-ascorbic acid or D-isoascorbic acid, n=9) was −1.1±0.4 mV.
